According to ChEMBL document CHEMBL1158605, “Synthesis of novel beta-lactam fused spiroisoxazolidine chromanones and tetralones as potent antimicrobial agent for human and plant pathogens” (2010):
Values after ≈ are worked out from the molar mass of the structure shown.

Key:
Proteus vulgaris = assay: Antibacterial activity against Proteus vulgaris; type: functional
Proteus mirabilis = assay: Antibacterial activity against Proteus mirabilis; type: functional
Staphylococcus aureus = assay: Antibacterial activity against Staphylococcus aureus; type: functional
Salmonella enterica = assay: Antibacterial activity against Salmonella typhi; type: functional, Salmonella enterica subsp. enterica serovar Typhi
Fusarium oxysporum = assay: Antifungal activity against Fusarium oxysporum; type: functional
Macrophomina phaseolina = assay: Antifungal activity against Macrophomina phaseolina; type: functional

Row | SMILES | MIC (Proteus vulgaris) | MIC (Proteus mirabilis) | MIC (Staphylococcus aureus) | MIC (Salmonella enterica) | MIC (Fusarium oxysporum) | MIC (Macrophomina phaseolina)
1 | COc1ccc(N2C(=O)[C@H]3[C@@H]2[C@H]2[C@H](c4ccccc4)[C@]4(COc5ccccc5C4=O)ON2[C@@H]3C[Se]c2ccccc2)cc1 | 30 mg/L (≈ 47.1 µM) | 55 mg/L (≈ 86.3 µM) | 45 mg/L (≈ 70.6 µM) | 20 mg/L (≈ 31.4 µM) | 125 mg/L (≈ 196 µM) | 50 mg/L (≈ 78.4 µM)
2 | COc1ccc(N2C(=O)[C@H]3[C@@H]2[C@H]2[C@H](c4ccc(C)cc4)[C@]4(COc5ccccc5C4=O)ON2[C@@H]3C[Se]c2ccccc2)cc1 | 40 mg/L (≈ 61.4 µM) | 65 mg/L (≈ 99.8 µM) | 45 mg/L (≈ 69.1 µM) | 35 mg/L (≈ 53.7 µM) | 150 mg/L (≈ 230 µM) | 75 mg/L (≈ 115 µM)
3 | COc1ccc([C@H]2[C@@H]3[C@H]4[C@H](C(=O)N4c4ccc(OC)cc4)[C@@H](C[Se]c4ccccc4)N3O[C@@]23COc2ccccc2C3=O)cc1 | 15 mg/L (≈ 22.5 µM) | 25 mg/L (≈ 37.4 µM) | 40 mg/L (≈ 59.9 µM) | 45 mg/L (≈ 67.4 µM) | 125 mg/L (≈ 187 µM) | 75 mg/L (≈ 112 µM)
4 | COc1ccc(N2C(=O)[C@H]3[C@@H]2[C@H]2[C@H](c4ccc(Cl)cc4)[C@]4(COc5ccccc5C4=O)ON2[C@@H]3C[Se]c2ccccc2)cc1 | 10 mg/L (≈ 14.9 µM) | 20 mg/L (≈ 29.8 µM) | 20 mg/L (≈ 29.8 µM) | 25 mg/L (≈ 37.2 µM) | 75 mg/L (≈ 112 µM) | 50 mg/L (≈ 74.4 µM)
5 | COc1ccc(N2C(=O)[C@H]3[C@@H]2[C@H]2[C@H](c4ccc(Br)cc4)[C@]4(COc5ccccc5C4=O)ON2[C@@H]3C[Se]c2ccccc2)cc1 | 25 mg/L (≈ 34.9 µM) | 30 mg/L (≈ 41.9 µM) | 30 mg/L (≈ 41.9 µM) | 45 mg/L (≈ 62.8 µM) | 150 mg/L (≈ 209 µM) | 75 mg/L (≈ 105 µM)
6 | COc1ccc(N2C(=O)[C@H]3[C@@H]2[C@H]2[C@H](c4ccccc4)[C@]4(CCc5ccccc5C4=O)ON2[C@@H]3C[Se]c2ccccc2)cc1 | 40 mg/L (≈ 62.9 µM) | 55 mg/L (≈ 86.5 µM) | 25 mg/L (≈ 39.3 µM) | 45 mg/L (≈ 70.8 µM) | 125 mg/L (≈ 197 µM) | 75 mg/L (≈ 118 µM)
7 | COc1ccc(N2C(=O)[C@H]3[C@@H]2[C@H]2[C@H](c4ccc(C)cc4)[C@]4(CCc5ccccc5C4=O)ON2[C@@H]3C[Se]c2ccccc2)cc1 | 45 mg/L (≈ 69.3 µM) | 50 mg/L (≈ 77 µM) | 40 mg/L (≈ 61.6 µM) | 35 mg/L (≈ 53.9 µM) | 75 mg/L (≈ 115 µM) | 25 mg/L (≈ 38.5 µM)
8 | COc1ccc([C@H]2[C@@H]3[C@H]4[C@H](C(=O)N4c4ccc(OC)cc4)[C@@H](C[Se]c4ccccc4)N3O[C@@]23CCc2ccccc2C3=O)cc1 | 35 mg/L (≈ 52.6 µM) | 50 mg/L (≈ 75.1 µM) | 45 mg/L (≈ 67.6 µM) | 40 mg/L (≈ 60.1 µM) | 125 mg/L (≈ 188 µM) | 50 mg/L (≈ 75.1 µM)
9 | COc1ccc(N2C(=O)[C@H]3[C@@H]2[C@H]2[C@H](c4ccc(Cl)cc4)[C@]4(CCc5ccccc5C4=O)ON2[C@@H]3C[Se]c2ccccc2)cc1 | 45 mg/L (≈ 67.2 µM) | 40 mg/L (≈ 59.7 µM) | 35 mg/L (≈ 52.2 µM) | 30 mg/L (≈ 44.8 µM) | 50 mg/L (≈ 74.6 µM) | 25 mg/L (≈ 37.3 µM)
10 | COc1ccc(N2C(=O)[C@H]3[C@@H]2[C@H]2[C@H](c4ccc(Br)cc4)[C@]4(CCc5ccccc5C4=O)ON2[C@@H]3C[Se]c2ccccc2)cc1 | 35 mg/L (≈ 49 µM) | 50 mg/L (≈ 70 µM) | 45 mg/L (≈ 63 µM) | 35 mg/L (≈ 49 µM) | 150 mg/L (≈ 210 µM) | 75 mg/L (≈ 105 µM)
11 | COC(=O)Nc1nc2ccccc2[nH]1 [CARBENDAZIM] | – | – | – | – | 18 mg/L (≈ 94.1 µM) | 15 mg/L (≈ 78.5 µM)
12 | CN(C)[C@@H]1C(O)=C(C(N)=O)C(=O)[C@@]2(O)C(O)=C3C(=O)c4c(O)cccc4[C@@](C)(O)[C@H]3C[C@@H]12 [TETRACYCLINE] | 15 mg/L (≈ 33.8 µM) | 20 mg/L (≈ 45 µM) | 10 mg/L (≈ 22.5 µM) | 15 mg/L (≈ 33.8 µM) | – | –
